Test results as given in patent US8778871B2 (Takeda Pharmaceutical Company Limited, priority 2004, dated 2014).
Non-standard residues stand in square brackets, D forms with d. Residues, ends and D or L forms follow the SMILES beside them. Arg(Me) = CNC(=N)NCCC[C@H](N)C(=O)O; azaGly = NNC(=O)O

molecular target: T1, hOT7T175 (Homo sapiens, UniProt Q969F8, L364H); assay type: cell-based; conditions: hOT7T175/CHO, FLIPR, evaluation for 40 seconds after initiation of the reaction
T1 construct: expressed in transfected cells
T1 sequence (Q969F8 whole entry L364H): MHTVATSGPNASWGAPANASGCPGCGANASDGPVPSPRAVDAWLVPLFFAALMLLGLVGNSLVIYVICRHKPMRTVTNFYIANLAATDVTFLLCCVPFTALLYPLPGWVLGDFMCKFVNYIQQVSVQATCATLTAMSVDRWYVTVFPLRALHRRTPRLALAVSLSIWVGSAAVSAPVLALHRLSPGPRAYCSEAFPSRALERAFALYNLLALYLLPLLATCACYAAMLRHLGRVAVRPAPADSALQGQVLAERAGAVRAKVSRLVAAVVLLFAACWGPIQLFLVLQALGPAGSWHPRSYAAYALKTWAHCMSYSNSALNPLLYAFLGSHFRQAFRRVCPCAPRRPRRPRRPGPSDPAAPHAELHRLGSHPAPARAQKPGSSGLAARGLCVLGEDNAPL
Procedure: The intracellular Ca ion level-increasing activity was measured using FLIPR as in TEST EXAMPLE 2.

Compound | Specific Act. (EC50/MS10 EC50)
2-Naphthoyl-Asn-Ser-Phe-AzaGly-Leu-Arg(Me)-Trp-NH2 [Compound No. 535] | 0.8
3-Phenylpropionyl-Asn-Aze(2)-Phe-AzaGly-Leu-Arg(Me)-Trp-NH2 [Compound No. 532] | 1.0
3-Phenylpropionyl-Asn-D-Pro-Phe-AzaGly-Leu-Arg(Me)-Trp-NH2 [Compound No. 533] | 9.7
3-Phenylpropionyl-Asn-Pic(2)-Phe-AzaGly-Leu-Arg(Me)-Trp-NH2 [Compound No. 531] | 1.8
3-Phenylpropionyl-Asn-Pro-Phe-AzaGly-Leu-Arg(Me)-Trp-NH2 [Compound No. 524] | 1.1
3-Phenylpropionyl-Asn-Ser(Ac)-Phe-AzaGly-Leu-Arg(Me)-Trp-NH2 [Compound No. 546] | 1.9
3-Phenylpropionyl-Asn-Ser-Cha-Gly-Leu-Arg(Me)-Trp-NH2 [Compound No. 518] | 10.5
CNC(=N)NCCC[C@H](NC(=O)[C@H](CC(C)C)NC(=O)CNC(=O)[C@H](Cc1ccccc1)NC(=O)[C@H](CO)NC(=O)[C@H](CC(N)=O)NC(=O)[C@H](Cc1c[nH]c2ccccc12)NC(=O)[C@H](CC(N)=O)NC(=O)[C@@H](N)Cc1ccc(O)cc1)C(=O)N[C@@H](Cc1ccccc1)C(N)=O [Compound No. 82] | 1.0
CNC(=N)NCCC[C@H](NC(=O)[C@H](CC(C)C)NC(=O)NNC(=O)[C@H](Cc1ccccc1)NC(=O)[C@H](CO)NC(=O)[C@H](CC(N)=O)NC(=O)[C@H](CO)NC(=O)[C@H](N)Cc1ccc(O)cc1)C(=O)N[C@@H](Cc1ccccc1)C(N)=O [Compound No. 239, D-Tyr-Ser-Asn-Ser-Phe-AzaGly-Leu-Arg(Me)-Phe-NH2] (H-[dY]SNSF[azaGly]L[Arg(Me)]F-NH2) | 6.7
CC[C@H](C)[C@H](NC(=O)[C@H](N)Cc1ccc(O)cc1)C(=O)N[C@@H](CC(N)=O)C(=O)N[C@@H](CO)C(=O)N[C@@H](Cc1ccccc1)C(=O)NNC(=O)N[C@@H](CC(C)C)C(=O)N[C@@H](CCCNC(=N)NC)C(=O)N[C@@H](Cc1ccccc1)C(N)=O [Compound No. 240, D-Tyr-Ile-Asn-Ser-Phe-AzaGly-Leu-Arg(Me)-Phe-NH2] (H-[dY]INSF[azaGly]L[Arg(Me)]F-NH2) | 4.9
Ac-D-Tyr-D-Pro-Asn-Thr-Phe-AzaGly-Leu-Arg(Me)-Trp-NH2 (Ac-[dY][dP]NTF[azaGly]L[Arg(Me)]W-NH2; SMILES CNC(=N)NCCC[C@H](NC(=O)[C@H](CC(C)C)NC(=O)NNC(=O)[C@H](Cc1ccccc1)NC(=O)[C@@H](NC(=O)[C@H](CC(N)=O)NC(=O)[C@H]1CCCN1C(=O)[C@@H](Cc1ccc(O)cc1)NC(C)=O)[C@@H](C)O)C(=O)N[C@@H](Cc1c[nH]c2ccccc12)C(N)=O) [Compound No. 661] | 8.5
Ac-D-Tyr-D-Pya(4)-Asn-Thr-D-Phe-AzaGly-Leu-Arg(Me)-Trp-NH2 [Compound No. 603] | 1.7
Ac-D-Tyr-D-Pya(4)-Asn-Thr-Phe-AzaGly-Leu-Arg(Me)-Phe-NH2 [Compound No. 685] | 4.8
Ac-D-Tyr-D-Trp-Alb-Ser-Phe-AzaGly-Leu-Arg(Me)-Trp-NH2 [Compound No. 579] | 0.6
Ac-D-Tyr-D-Trp-Asn-Aze(2)-Phe-AzaGly-Leu-Arg(Me)-Trp-NH2 [Compound No. 563] | 0.7
